According to patent publication US20240190828A1, “Small Molecule Inhibitors of PBRM1-BD2” (The Medical College of Wisconsin, Inc., priority 2021, published 2024):
“And” between values parts separate entries of the source, which are not always exact repeats. Identical values can stand only once. Like-named read-outs stand apart in the source and are kept apart here.

Columns and labels:
[1] = molecular target: T1, PBRM1-BD2 (Homo sapiens (Human), UniProt Q86U86); assay: biochemical; assay type: binding; conditions: read-out: Kd
T1 sequence (Q86U86 177-287): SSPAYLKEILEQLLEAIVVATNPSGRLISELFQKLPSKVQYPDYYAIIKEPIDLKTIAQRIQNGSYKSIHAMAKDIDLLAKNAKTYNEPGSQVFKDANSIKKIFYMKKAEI
Method: Protein-detected NMR-based fragment screening has the advantage of providing information about both binding affinity and the amino acid residues involved in binding.
NMR spectroscopy. Automated NMR data collection was performed on ^15N-labeled PBRM1-BD2 (50 μM) by using ^1H,^15N SOFAST-HMQC experiments. […] The total time for screening 85 or 82 samples each containing 12 fragments or DMSO by ^1H,^15N SOFAST-HMQC was 46 h (˜32 min/sample). […] All NMR data were processed using NMRPipe^4 in NMRbox.^5 Spectra were processed by using in-house automated Python scripts in NMRPipe,^4 and chemical shifts perturbation were analyzed using SPARKY.^6 Total ^1H/^15N chemical shift perturbations and equilibrium dissociation constants (Kd) were calculated as reported.^2

[2] = molecular target: T1, PBRM1-BD2; assay: biochemical; assay type: binding; conditions: for PBRM1-BD2 ΔTm: DSF, 10 μM protein, 100 μM inhibitor, vs apoprotein
Method: DSF measures protein unfolding by monitoring the fluorescence of the SYPRO Orange dye as a function of temperature; positive thermal shifts indicate ligand binding induced stabilization of the protein.
(§1) Differential Scanning Fluorimetry (DSF). Bromodomain DSF Tm assays were performed using an Mx3005P (Stratagene) PCR detection system and low profile 96-well PCR plates (UltraFlux, Flat Top, SSI 3400-00S). […] The temperature was raised by 1° C./min from 25-95° C., and fluorescence readings were taken at each interval. Melting curves were analyzed using our online interactive fitting tool for thermofluor experiments (https://dsf-analysis.herokuapp.com/DSF-analysis) and plotted using GraphPad Prism.

[3] = molecular target: PCAF (Homo sapiens (Human), UniProt Q92831); assay: DSF selectivity profiling; assay type: binding
Sequence of PCAF (Q92831 723-827): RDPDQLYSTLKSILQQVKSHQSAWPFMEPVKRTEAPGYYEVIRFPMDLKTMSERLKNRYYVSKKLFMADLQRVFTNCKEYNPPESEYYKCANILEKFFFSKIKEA
Method: as §1

[4] = molecular target: BRD3-BD2 (Homo sapiens (Human), UniProt Q15059); assay: DSF selectivity profiling; assay type: binding
Sequence of BRD3-BD2 (Q15059 306-415): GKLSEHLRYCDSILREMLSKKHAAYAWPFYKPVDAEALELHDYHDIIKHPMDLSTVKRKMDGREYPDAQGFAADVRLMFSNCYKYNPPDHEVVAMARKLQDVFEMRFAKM
Method: as §1

[5] = molecular target: PBRM1-BD1 (Homo sapiens (Human), UniProt Q86U86); assay: DSF selectivity profiling; assay type: binding
Sequence of PBRM1-BD1 (Q86U86 41-151): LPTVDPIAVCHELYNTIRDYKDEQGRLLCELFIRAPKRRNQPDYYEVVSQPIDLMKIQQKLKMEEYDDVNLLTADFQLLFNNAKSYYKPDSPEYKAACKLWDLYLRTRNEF
Method: as §1

[6] = molecular target: PBRM1-BD4 (Homo sapiens (Human), UniProt Q86U86); assay: DSF selectivity profiling; assay type: binding
Sequence of PBRM1-BD4 (Q86U86 518-625): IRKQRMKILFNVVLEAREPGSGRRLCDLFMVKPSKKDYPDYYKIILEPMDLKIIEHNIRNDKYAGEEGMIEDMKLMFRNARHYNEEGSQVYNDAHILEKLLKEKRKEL
Method: as §1

[7] = molecular target: BRD3-BD1 (Homo sapiens (Human), UniProt Q15059); assay: DSF selectivity profiling; assay type: binding
Sequence of BRD3-BD1 (Q15059 34-140): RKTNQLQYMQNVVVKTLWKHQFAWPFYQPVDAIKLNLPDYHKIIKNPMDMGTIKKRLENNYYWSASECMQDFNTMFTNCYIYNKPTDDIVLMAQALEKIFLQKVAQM
Method: as §1

[8] = molecular target: BRD4-BD1 (Homo sapiens (Human), UniProt O60885); assay: DSF selectivity profiling; assay type: binding
Method: as §1

[9] = molecular target: p300 (Homo sapiens (Human), UniProt Q09472); assay: DSF selectivity profiling; assay type: binding
Sequence of p300 (Q09472 1049-1156): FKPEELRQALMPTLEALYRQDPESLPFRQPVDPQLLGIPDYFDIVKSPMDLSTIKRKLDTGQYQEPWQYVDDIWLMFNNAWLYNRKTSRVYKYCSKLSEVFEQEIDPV
Method: as §1

[10] = molecular target: CREBBP (Homo sapiens (Human), UniProt Q92793); assay: DSF selectivity profiling; assay type: binding
Sequence of CREBBP (Q92793 1085-1192): as the sequence (Q09472 1049-1156) above, with S47N, I73V, Y93F, S98A counted along it
Method: as §1

[11] = molecular target: CECR2 (Homo sapiens (Human), UniProt Q9BXF3); assay: DSF selectivity profiling; assay type: binding
Sequence of CECR2 (Q9BXF3 434-538): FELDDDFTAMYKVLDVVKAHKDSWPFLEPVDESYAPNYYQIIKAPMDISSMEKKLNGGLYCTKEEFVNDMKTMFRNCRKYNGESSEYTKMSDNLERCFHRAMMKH
Method: as §1

[12] = molecular target: BRD7 (Homo sapiens (Human), UniProt Q9NPI1); assay: DSF selectivity profiling; assay type: binding
Sequence of BRD7 (Q9NPI1 131-235): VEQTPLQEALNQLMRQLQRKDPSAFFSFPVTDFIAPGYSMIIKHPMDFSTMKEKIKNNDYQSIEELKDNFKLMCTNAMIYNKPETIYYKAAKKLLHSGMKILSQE
Method: as §1

[13] = molecular target: ASH1L (Homo sapiens (Human), UniProt Q9NR48); assay: DSF selectivity profiling; assay type: binding
Method: as §1

[14] = molecular target: PBRM1-BD3 (Homo sapiens (Human), UniProt Q86U86); assay: DSF selectivity profiling; assay type: binding
Sequence of PBRM1-BD3 (Q86U86 381-487): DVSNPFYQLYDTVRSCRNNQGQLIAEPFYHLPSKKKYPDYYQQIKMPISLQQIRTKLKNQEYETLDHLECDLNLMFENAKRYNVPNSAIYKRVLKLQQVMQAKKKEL
Method: as §1

[15] = molecular target: SMARCA2 (Homo sapiens (Human), UniProt P51531); assay: DSF selectivity profiling; assay type: binding
Sequence of SMARCA2 (P51531 1378-1506): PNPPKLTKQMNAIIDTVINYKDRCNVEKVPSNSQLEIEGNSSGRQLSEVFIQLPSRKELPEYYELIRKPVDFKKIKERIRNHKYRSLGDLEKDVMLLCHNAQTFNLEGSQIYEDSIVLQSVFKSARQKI
Method: as §1

[16] = molecular target: PBRM1-BD6 (Homo sapiens (Human), UniProt Q86U86); assay: DSF selectivity profiling; assay type: binding
Sequence of PBRM1-BD6 (Q86U86 769-879): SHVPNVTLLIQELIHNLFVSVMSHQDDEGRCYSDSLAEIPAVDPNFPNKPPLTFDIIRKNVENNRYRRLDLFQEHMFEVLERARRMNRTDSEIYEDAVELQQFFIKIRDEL
Method: as §1

[17] = molecular target: BRD4-BD2 (Homo sapiens (Human), UniProt O60885); assay: DSF selectivity profiling; assay type: binding
Method: as §1

[18] = molecular target: SMARCA4 (Homo sapiens (Human), UniProt P51532); assay: DSF selectivity profiling; assay type: binding
Sequence of SMARCA4 (P51532 1453-1564): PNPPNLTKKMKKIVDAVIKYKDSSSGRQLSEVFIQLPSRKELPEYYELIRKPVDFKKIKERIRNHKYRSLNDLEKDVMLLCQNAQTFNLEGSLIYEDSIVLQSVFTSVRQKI
Method: as §1

[19] = molecular target: TRIM33A (Homo sapiens (Human), UniProt Q9UPN9); assay: DSF selectivity profiling; assay type: binding
Sequence of TRIM33A (Q9UPN9 957-1080): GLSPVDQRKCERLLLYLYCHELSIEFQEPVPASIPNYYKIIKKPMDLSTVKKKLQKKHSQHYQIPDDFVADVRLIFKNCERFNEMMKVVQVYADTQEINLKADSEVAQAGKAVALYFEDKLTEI
Method: as §1

[20] = molecular target: BRD2-BD2 (Homo sapiens (Human), UniProt P25440); assay: DSF selectivity profiling; assay type: binding
Sequence of BRD2-BD2 (P25440 344-453): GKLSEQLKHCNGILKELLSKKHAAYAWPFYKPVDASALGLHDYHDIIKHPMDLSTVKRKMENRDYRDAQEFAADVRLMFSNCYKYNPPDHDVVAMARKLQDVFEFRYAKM
Method: as §1

[21] = molecular target: BRDT-BD1 (Homo sapiens (Human), UniProt Q58F21); assay: DSF selectivity profiling; assay type: binding
Method: as §1

[22] = molecular target: PBRM1-BD5 (Homo sapiens (Human), UniProt Q86U86); conditions: DSF
Sequence of PBRM1-BD5 (Q86U86 653-763): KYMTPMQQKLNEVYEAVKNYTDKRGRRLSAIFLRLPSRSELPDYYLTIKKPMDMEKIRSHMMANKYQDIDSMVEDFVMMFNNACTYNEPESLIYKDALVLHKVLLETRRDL

[23] = test system: PC3 cells; assay: Cell viability assay (CellTiter-Glo); assay type: cell-based, human; conditions: 10, 1 and 0.1 μM
Method: (§2) Cell Viability Assays. Cells were seeded in a 96-well plate and incubated for 12-24 h prior to initial treatment. The number of cells per well was chosen empirically based on cell growth rates (LNCaP-5,000 cells/well, PC3 and RWPE-1-3,000 cells per well, HEK293T-1,000 cells/well). Cells were treated with either DMSO control or serial dilutions of inhibitors and media with compound was refreshed every 48 h.

[24] = test system: RWPE-1 cells; assay: Cell viability assay (CellTiter-Glo); assay type: cell-based, human; conditions: 10, 1 and 0.1 μM
Method: as §2

[25] = molecular target: T1, PBRM1-BD2; assay: AlphaScreen competition assay, His6-tagged PBRM1-BD2 and biotinylated H3K14ac peptide; assay type: binding; conditions: 0.2 μM His6-PBRM1-BD2, 0.1 μM biotinylated H3K14ac peptide
[26] = read-out: PBRM1-BD2 ΔTm, DSF, 10 μM protein, 100 μM inhibitor, vs apoprotein

Compound	ΔTm at 100 µM [2, 26] [°C]	PCAF ΔTm [3] [°C]	BRD3-BD2 ΔTm [4] [°C]	BRD3-BD1 ΔTm [7] [°C]	BRD4-BD1 ΔTm [8] [°C]	p300 ΔTm [9] [°C]	CREBBP ΔTm [10] [°C]	CECR2 ΔTm [11] [°C]	BRD7 ΔTm [12] [°C]	ASH1L ΔTm [13]	SMARCA2 ΔTm [15] [°C]	BRD4-BD2 ΔTm [17] [°C]	TRIM33A ΔTm [19] [°C]	BRD2-BD2 ΔTm [20] [°C]	BRDT-BD1 ΔTm [21] [°C]	other results
NC(=S)c1ccc(F)cc1 [Compound 6h]																Kd [1]: > 2000 µM
Cc1cccc(C2NC(=O)c3c(Br)cccc3N2)c1 (centres unmarked) [Compound 34, 5-Bromo-2-(3-methylphenyl)-2,3-dihydroquinazolin-4(1H)-one]	> 6.2	0.6	0.5	0.4	0.3	−0.1	−0.2	−0.6	−0.4	−0.4 °C	0.3	−1.1	0.1	0.5	−0.4	PBRM1-BD2 ΔTm [2]: 6.4 °C and 6.4 ± 0.2 °C; PBRM1-BD1 ΔTm [5]: 1.4 °C; PBRM1-BD4 ΔTm [6]: 0.2 °C; PBRM1-BD3 ΔTm [14]: 0.6 °C; PBRM1-BD6 ΔTm [16]: −2.4 °C; SMARCA4 ΔTm [18]: −0.2 °C; PBRM1-BD5 ΔTm [22]: ~1.5 °C; growth inhibition of PC3 cells [23]: do not inhibit the growth of PC3 and RWPE1 at tested concentrations; growth inhibition of RWPE1 cells [24]: do not inhibit the growth of PC3 and RWPE1 at tested concentrations
CCC(/C=C1\CCn2c1nc(=O)c1ccccc12)CC [Compound 8, (E)-3-(2-Ethylbutylidene)-2,3-dihydropyrrolo[1,2-a]quinazolin-5(1H)-one, reference compound]										did not show binding						
O=C(O)c1ccccc1Nc1cc(Cl)ccc1C(=O)O [Compound 37, 2-((2-Carboxyphenyl)amino)-4-chlorobenzoic acid]																IC50 [25]: > 250 µM; ΔTm at 100 µM ([2]; read-out: PBRM1-BD2 ΔTm): 0.3 ± 0.02 °C
N#Cc1ncccc1N1CCCCC1 [Compound 6j]																Kd [1]: > 2000 µM
O=C1NC(c2c(F)cccc2Cl)Nc2cccc(Cl)c21 (centres unmarked) [Compound 11, 5-Chloro-2-(2-chloro-6-fluorophenyl)-2,3-dihydroquinazolin-4(1H)-one]	4.4 ± 0.4															
COc1cccc2c1C(=O)NC(c1ccccc1C)N2 (centres unmarked) [Compound 31, 5-Methoxy-2-(2-methylphenyl)-2,3-dihydroquinazolin-4(1H)-one]	0															IC50 [25]: > 70 µM
COc1cccc(OCC(F)(F)F)c1C#N [Compound 6i]																Kd [1]: > 2000 µM
CN(C)/C=C1\CCn2c1nc(=O)c1c(Cl)cccc12 [Compound 2, (E)-6-Chloro-3-((dimethylamino)methylene)-2,3-dihydropyrrolo[1,2-a]quinazolin-5(1H)-one, reference compound]	3.3 ± 0.4	−0.2	0.5	0.1	0.1	−0.6	0.1	2.0	1.2	−0.7 °C	2.2	−0.6	−0.9	−0.2	−0.1	PBRM1-BD1 ΔTm [5]: −0.1 °C; PBRM1-BD4 ΔTm [6]: 0.3 °C; PBRM1-BD3 ΔTm [14]: 2.6 °C; PBRM1-BD6 ΔTm [16]: −1.4 °C; SMARCA4 ΔTm [18]: 2 °C; PBRM1-BD5 ΔTm [22]: 7.7 °C
O=C(O)c1ccc(Cl)c2c(=O)c3ccccc3[nH]c12 [Compound 38, 1-Chloro-9-oxo-9,10-dihydroacridine-4-carboxylic acid]	0															IC50 [25]: > 250 µM
Cc1cccc(C)c1C1NC(=O)c2c(Cl)cccc2N1 (centres unmarked) [Compound 26, 5-Chloro-2-(2,6-dimethylphenyl)-2,3-dihydroquinazolin-4(1H)-one]		0.6	0.3	0.0	0	0.2	0.2	1.3	0.1	−0.8 °C	0.5	−4.4	0.5	0.5	−0.6	
CCC(/C=C1\CCn2c1nc(=O)c1c(Cl)cccc12)CC [Compound 7, (E)-6-Chloro-3-(2-ethylbutylidene)-2,3-dihydropyrrolo[1,2-a]quinazolin-5(1H)-one, reference compound]	7.7	0.4	0.4	−0.3	−0.2	−0.5	−0.7	−0.9	0.4		3.0	−1.1	0.3	0.6	−0.8	PBRM1-BD2 ΔTm [2]: > 7.5 °C; PBRM1-BD1 ΔTm [5]: −0.9 °C; PBRM1-BD4 ΔTm [6]: 3.9 °C; PBRM1-BD3 ΔTm [14]: 2.8 °C; PBRM1-BD6 ΔTm [16]: −1.5 °C; SMARCA4 ΔTm [18]: 3.1 °C; PBRM1-BD5 ΔTm [22]: 11.0 °C; growth inhibition of PC3 cells [23]: more significant inhibition of PBRM1-independent prostate cancer cell line PC3
